Measurements reported in ChEMBL document CHEMBL1145829, “Estrogen receptor modulators: identification and structure-activity relationships of potent ERalpha-selective tetrahydroisoquinoline ligands” (J Med Chem, 2003).

How the values were obtained:
MCF7 [1] = experiment: cells; settings: Homo sapiens
Estrogen receptor [2] = biological target: T1, Estrogen receptor (Homo sapiens, UniProt P03372)
T1 sequence (P03372 whole entry): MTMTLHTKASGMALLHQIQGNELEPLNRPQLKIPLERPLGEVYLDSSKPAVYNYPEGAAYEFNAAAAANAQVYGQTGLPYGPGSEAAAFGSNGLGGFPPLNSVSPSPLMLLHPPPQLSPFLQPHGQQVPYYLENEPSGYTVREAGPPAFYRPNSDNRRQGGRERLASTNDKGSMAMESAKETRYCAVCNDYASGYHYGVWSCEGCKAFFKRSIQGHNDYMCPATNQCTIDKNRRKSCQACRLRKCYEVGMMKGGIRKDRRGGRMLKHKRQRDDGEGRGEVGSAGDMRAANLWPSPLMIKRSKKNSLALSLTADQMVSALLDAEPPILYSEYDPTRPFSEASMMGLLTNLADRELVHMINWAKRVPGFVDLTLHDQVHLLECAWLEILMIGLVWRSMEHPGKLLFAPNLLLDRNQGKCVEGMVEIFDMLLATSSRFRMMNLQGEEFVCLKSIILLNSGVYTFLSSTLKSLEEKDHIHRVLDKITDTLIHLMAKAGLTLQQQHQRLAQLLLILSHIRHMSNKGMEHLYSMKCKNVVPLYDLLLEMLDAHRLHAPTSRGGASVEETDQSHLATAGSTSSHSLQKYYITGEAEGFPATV

Estrogen receptor beta [3] = biological target: T2, Estrogen receptor beta (Homo sapiens, UniProt Q92731)
MCF7 [4] = test system: MCF7
MCF7 [5] = experiment: cells; settings: Homo sapiens; remark: listed apart in the source
Estrogen receptor beta [6] = biological target: T2, Estrogen receptor beta; remark: listed apart in the source
[7] = Terminal half life was tested after peroral administration (5 mg/kg) in conscious rat; type: ADME, organism-based; settings: in vivo, po
Rattus norvegicus = experiment: Maximal blood concentration after peroral administration (dose normalized) (5 mg/kg) in conscious rat; type: ADME, organism-based; parameters: dose 5 mg/kg, route oral; settings: in vivo, po
[8] = Total clearance value was tested after peroral administration (5 mg/kg ) in conscious rat; type: ADME, organism-based; settings: in vivo, po
in vivo = settings: rat, po, 5 mg/kg
Estrogen receptor [9] = biological target: T1, Estrogen receptor; remark: listed apart in the source
MCF7 [10] = test system: MCF7; remark: listed apart in the source
Estrogen receptor [11] = biological target: T1, Estrogen receptor; experiment: Inhibition of estrogen receptor alpha mediated transcriptional activation

Compound	IC50 (MCF7 [1]) [nM]	IC50 (Estrogen receptor [2]) [nM]	IC50 (Estrogen receptor beta [3]) [nM]	Agonism (MCF7 [4]) [%]	EC50 (MCF7 [5]) [nM]	IC50 (Estrogen receptor beta [6]) [nM]	half-life [7] [h]	Cmax (Rattus norvegicus) [nM]	CL/F [8] [mL/min/kg]	bioavailability (in vivo) [%]	IC50 (Estrogen receptor [9]) [nM]	EC50 (MCF7 [10]) [pnM]	IC50 (Estrogen receptor [11]) [nM]
CC1(c2ccc(OCCN3CCCCC3)cc2)c2ccc(O)cc2CCN1c1cccc(Cl)c1 (centres undefined)	8	49	284	18	< 0.1	159	–	–	–	–	–	–	–
CC1(c2ccc(OCCN3CCCCC3)cc2)c2ccc(O)cc2CCN1c1ccccc1 (centres undefined)	4	29	104	13	< 0.1	83	5.2	5.2	116	23	–	–	–
CC1(c2ccc(OCCN3CCCC3)cc2)c2ccc(O)cc2CCN1c1ccccc1 (centres undefined)	–	38	227	–	–	83	–	–	–	–	–	–	–
CC1(c2ccc(OCCN3CCCCC3)cc2)c2ccc(O)cc2CCN1c1ccc(Cl)cc1 (centres undefined)	5.2	35	396	8	< 0.1	552	–	–	–	–	–	–	–
Oc1ccc2c(c1)CCN(c1ccccc1)C2c1ccc(F)cc1 (centres undefined)	–	–	–	–	1	–	–	–	–	–	–	–	–
CC1(c2ccc(OCCN3CCCCCC3)cc2)c2ccc(O)cc2CCN1c1ccccc1 (centres undefined)	6	56	200	13	< 0.1	80	–	–	–	–	–	–	–
CC(C)c1ccc(N2CCc3cc(O)ccc3C2(C)c2ccc(OCCN3CCCC3)cc2)cc1 (centres undefined)	3.2	44	1970	10	< 0.1	4970	–	–	–	–	–	–	–
CC1(c2ccc(OCCN3CCCC3)cc2)c2ccc(O)cc2CCN1c1ccc(F)cc1 (centres undefined)	3.5	31	204	16	< 0.1	82	8.6	20	45.2	53	–	–	–
Cc1ccc(N2CCc3cc(O)ccc3C2(C)c2ccc(OCCN3CCCCC3)cc2)cc1 (centres undefined)	4	28	421	9	< 0.1	486	–	–	–	–	2.9	–	–
CN(C)c1cccc(N2CCc3cc(O)ccc3C2(C)c2ccc(OCCN3CCCCC3)cc2)c1 (centres undefined)	36	71	3110	18	< 0.5	2180	–	–	–	–	19.8	–	–
CC/C(=C(\c1ccccc1)c1ccc(OCCN(C)C)cc1)c1ccccc1 [TAMOXIFEN]	–	–	–	–	10	–	–	–	–	–	–	–	–
CC(C)c1cccc(N2CCc3cc(O)ccc3C2(C)c2ccc(OCCN3CCCCC3)cc2)c1 (centres undefined)	27	46	1100	16	< 0.4	492	–	–	–	–	16.1	–	–
CC1(c2ccc(OCCN3CCCCC3)cc2)c2ccc(O)cc2CCN1c1cccc(O)c1 (centres undefined)	2	34	304	10	< 0.1	47	–	–	–	–	–	–	–
Cl.O=C(c1ccc(OCCN2CCCCC2)cc1)c1c(-c2ccc(O)cc2)sc2cc(O)ccc12 [RALOXIFENE HYDROCHLORIDE]	–	–	–	–	0.02	–	1.7	7.5	158	–	–	–	–
CC1(c2ccc(OCCN3CCCC3)cc2)c2ccc(O)cc2CCN1c1cccc(Cl)c1 (centres undefined)	7	66	272	20	< 0.1	106	–	–	–	–	–	–	–
Oc1ccc2c(c1)CCN(c1ccccc1)C2c1ccc(OCCN2CCCCC2)cc1 (centres undefined)	–	–	–	–	–	–	3.5	31	51.9	42	–	< 0.15	–
Cl.Oc1ccc2c(c1)CC[C@H](c1ccccc1)[C@@H]2c1ccc(OCCN2CCCC2)cc1	–	–	–	–	0.02	–	5.2	15.5	55.7	38	–	–	–
CCC(=C(c1ccc(O)cc1)c1ccc(OCCN(C)C)cc1)c1ccccc1	8.5	–	–	31	0.12	–	–	–	–	–	–	–	–
CC1(c2ccc(OCCN3CCCC3)cc2)c2ccc(O)cc2CCN1c1cccc(F)c1 (centres undefined)	3.8	39	123	5	< 0.1	198	–	–	–	–	–	–	–
CC1(c2ccc(OCCN3CCCCC3)cc2)c2ccc(O)cc2CCN1c1ccc(F)cc1 (centres undefined)	–	–	317	13	–	92	7.1	16	64.9	56	–	–	–
CC(C)c1ccc(N2CCc3cc(O)ccc3C2(C)c2ccc(OCCN3CCCCC3)cc2)cc1 (centres undefined)	3.4	71	3690	14	< 0.1	4780	–	–	–	–	–	–	–
Cc1ccc(N2CCc3cc(O)ccc3C2(C)c2ccc(OCCN3CCCC3)cc2)cc1 (centres undefined)	4.1	31	354	14	< 0.1	448	–	–	–	–	–	–	3.5
CC1(c2ccc(OCCN3CCCC3)cc2)c2ccc(O)cc2CCN1c1cccc(O)c1 (centres undefined)	2	–	190	15	< 0.5	33	5.9	5.3	130	15	–	–	–
CN(C)c1cccc(N2CCc3cc(O)ccc3C2(C)c2ccc(OCCN3CCCC3)cc2)c1 (centres undefined)	32	94	2200	19	< 0.5	2970	–	–	–	–	19	–	–
Oc1ccc2c(c1)CCN(c1ccccc1)C2c1ccc(OCCN2CCCC2)cc1 (centres undefined)	29	21	166	34	< 0.1	291	3	55	55	73	10.7	–	–
CC1(c2ccc(OCCN3CCCC3)cc2)c2ccc(O)cc2CCN1c1ccc(Cl)cc1 (centres undefined)	6.2	27	302	10	< 0.1	531	–	–	–	–	3.3	–	–
